Experimental data as given in patent US20100076072A1, “COMPOSITIONS AND METHODS OF VITAMIN E ADMINISTRATION” (NORTHWESTERN UNIVERSITY, priority 2008, published 2010).

Tests used:
[1] = tested on: VCAM-1-dependent spleen cell migration across mHEVa endothelial cells; test: In vitro Transwell migration assay; format: cell-based, mouse; details: for Migration after pretreatment of leukocytes with tocopherol and washing: leukocytes pretreated, washed; for Lymphocyte migration in transwell migration assay: tocopherol left in culture, 24 hours after addition of spleen cells, 80 μM α / 5 μM γ
Method: In vitro Transwell migration assay. mHEVa cells were grown to confluence on Transwells with 12 μm pores (Costar Cambridge, Mass.). The mHEVc cell monolayers block nonspecific accumulation of red blood cells in the lower transwell chamber and block FITC-albumin diffusion. Spleen cell migration is stimulated by mHEV cell secretion of the chemokine MCP-1. The number of lymphocytes that migrate is linear from 0-24 hrs followed by a plateau. Spleen cells that migrate are greater than 95% lymphocytes and the percentage of cells that migrate is consistent with other in vitro models with endothelial cell lines or cytokine-activated microvascular endothelial cells.
In this transendothelial migration assay used, the migrated spleen cells are >95% lymphocytes and the B cells and T cells migrate in response to MCP-1. […]

[2] = tested on: delayed-type-hypersensitivity responses; details: in vivo; cited from earlier work
[3] = molecular target: T1, PKCα (Mus musculus, UniProt P20444); test: VCAM-1 activation of endothelial cell PKCα (PKCα-Thr638 phosphorylation, western blot); format: cell-based; details: overnight 80 μM α-tocopherol / 2 μM γ-tocopherol; anti-VCAM-1 stimulation 10 minutes
T1 construct: endogenous in cells; host or cells: endothelial cells (mHEVa named)
Method: Endothelial cells were pretreated overnight with physiological concentrations of tocopherols (80 μM α-tocopherol and/or 2 μM γ-tocopherol). Endothelial cell VCAM-1 was stimulated with anti-VCAM-1 and a secondary antibody for 10 minutes. Phosphorylation of PKCα-Thr^638 was examined by western blot, developed using an ECL kit, and analyzed by densitometry as in the methods section. These concentrations of α-tocopherol (80 μM) and γ-tocopherol (2 μM) were optimal for their inhibition or enhancement, respectively, of VCAM-1 activation of PKCα (data not shown). Shown are representative blots and data from 5 experiments. *, p<0.05 compared to nonstimulated groups. **, p<0.05 compared to nonstimulated groups and p<0.07 compared to DMSO-treated/anti-VCAM-stimulated group.

[4] = tested on: adhesion molecule expression; details: atherosclerosis models; cited from earlier work
[5] = tested on: endotoxin-stimulated neutrophil infiltration into the lung; details: other animal models; cited from earlier work
[6] = tested on: OVA-challenged mice (experimental asthma); test: OVA experimental asthma: lung tissue eosinophils (anti-major basic protein immunolabeling); format: in vivo, mouse; details: daily s.c. 2 μg tocopherol days 13-20, day 21
[7] = tested on: VCAM-1-dependent lymphocyte migration across mHEVa endothelial cells; test: Transendothelial migration assay with physiological laminar flow (parallel plate flow chamber); format: cell-based, mouse; details: endothelial cells pretreated overnight, washed; 15 minutes, 2 dynes/cm^2
Method: In vitro cell association and migration assays with laminar flow. The parallel plate flow chamber was used to examine migration under conditions of laminar flow. Endothelial cells were grown to confluence on slides and then the slide was placed in a parallel plate flow chamber. In vivo, in the absence of inflammation, the rapid fluid dynamics of the blood result in blood cells located midstream of the vascular flow. However, during inflammation, there is a change of fluid dynamics. […]
Therefore, spleen cells (3×10^6) were added to the flow chamber (35 cm^2) at 2 dynes/cm^2. […] To initiate spleen cell contact with the endothelial cells in vitro, the spleen cells were allowed to settle in the chamber as monitored by microscopy and then 2 dynes/cm^2 was applied for the 15 minute laminar flow assay. […] To quantify migrated spleen cells at 15 minutes, phase contrast microscopy was used to count migrated cells that are phase dark. Under laminar flow, spleen cell migration was detected at 15 minutes. The number of spleen cells that were associated but not migrated (phase light cells) at 15 minutes is low since in 15 minutes, the majority of non-migrating cells roll off the monolayer of endothelial cells as determined by microscopy. […]

[8] = tested on: lung; details: in vivo; cited from earlier work
[9] = tested on: OVA-challenged mice (experimental asthma); test: Airway hyperresponsiveness to methacholine, whole-body plethysmography (Penh); format: in vivo, mouse; details: for Airway hyperresponsiveness (AHR), enhanced pause (Penh): OVA-challenged BALB/c mice, methacholine dose curve, day 21
Method: Airway Hyperresponsiveness. Lung responsiveness was determined using methacholine as previously described. On day 21, the mice were analyzed for airway responsiveness by whole body plethysmology. The whole-body plethysmography on conscious, unrestrained mice was performed under continuous airflow conditions (Buxco, Troy, N.Y.). Continuous airflow was used to avoid the influence of conditioning on airway functions, causing aberrant measurements. Enhanced pause (Penh) values were calculated from the flow-derived whole-body plethysmography measurements done with continuous air flow. Penh is a unitless indicator of changes in airway resistance and correlates well with specific airway resistance. Baseline readings were averaged for 5 minutes. Saline or methacholine was nebulized into the airflow for 2-minute periods and the average Penh value calculated for this and the subsequent 8 minutes.
Mice were sensitized with intraperitoneal injection of OVA grade V (10 μg)/alum or saline/alum on days 0 and 7 (SEE FIG. 2). On days 13-20, these mice received daily subcutaneous injections (500) of 2 μg natural tocopherol/ethoxylated castor oil (33) or ethoxylated castor oil alone. This daily 2 μg of natural tocopherol is equivalent to the amount of tocopherol that mice consume from diets (4 g diet consumed/day×500 mg a tocopherol/kg diet) that are commonly used to elevate tissue tocopherols in mice. On days 16, 18, and 20 the mice were challenged with intranasal OVA fraction VI (150 μg) in saline or saline alone. On day 21, the mice were analyzed for airway responsiveness and then tissues were collected. Lung responsiveness was determined using methacholine and whole-body plethysmography as previously described. This method of measuring lung function has the advantage of analysis of larger numbers of animals, as compared to the few animals that can be analyzed using invasive measures of lung function. The whole-body plethysmography correlates well with airway function when performed under continuous flow conditions. […]

[10] = Tocopherol levels in lung tissue and plasma (HPLC, electrochemical detector); format: in vivo, mouse; details: for Lung tissue level of the other tocopherol (α vs γ) / Lung tissue level of the administered tocopherol: mice; for Lung tissue level of the administered tocopherol: day 21, daily s.c. 2 μg tocopherol days 13-20
Method: Body weight and tocopherol levels in these mice were examined. […] Lungs were perfused to remove the blood, homogenized in ethanol and extracted with hexane. Tocopherol concentrations were determined by HPLC with an electrochemical detector.

[11] = tested on: OVA-challenged mice (experimental asthma); test: OVA experimental asthma: leukocyte infiltration into bronchoalveolar lavage (BAL); format: in vivo, mouse
Method: Reagents. Ethoxylated castor oil was composed of polyethoxylated castor oil (PEG35), 20% ethanol, and 1% benzyl alcohol. […] The purified tocopherols were diluted in ethoxylated castor oil to indicated concentrations for the in vivo studies. The purified tocopherols were diluted in DMSO (0.2%) for the in vitro studies. OVA administration. BALB/c female mice were maintained on chow diet. The mice were sensitized by intraperitoneal injection (200 μl) of OVA grade V (10 μg)/alum or saline/alum on days 0 and 7 (SEE FIG. 1). On days 13-20, these mice received daily subcutaneous injections (50 μl) of 2 μg natural tocopherol/ethoxylated castor oil or ethoxylated castor oil alone. This daily 2 μg of natural tocopherol is equivalent to the amount of tocopherol that mice consume from diets (4 g diet consumed/day×500 mg α-tocopherol/kg diet) that are commonly used to elevate tissue tocopherols in mice. The mice recieved 2 μg d-α-tocopherol, 2 μg d-γ-tocopherol, 2 μg d-α-tocopherol plus 2 μg d-γ-tocopherol or the vehicle exthoxylated castor oil. […] During the OVA responses in mice, tocopherol radicals are recycled by endogenously synthesized ascorbic acid. On days 16, 18, and 20, the mice were challenged with intranasal OVA fraction VI (150 μg) in saline or saline alone. On day 21, the mice were analyzed for airway responsiveness followed by collection of tissues.
(§1) Tissue collection. After airway function analysis, mice were weighed, sacrificed and the lungs flushed twice with 0.8 ml PBS. The cells in this bronchoalveolar lavage (BAL) were cytospun onto slides, DiffQuik (Baxter) stained, and differential cell counts were performed. BAL supernatants were snap frozen and stored at −80° C. for cytokine analysis. Lungs were perfused free of blood and one quarter of the lung was tied off, collected, weighed, snap frozen, and stored at −80° C. for tocopherol analysis and PGE2 analysis. One quarter of the lung was collected and placed in RNA later for analysis of mRNA for eotaxin expression. The other half of the lung was injected with 40% freezing compound, collected and stored at −80° C. for tissue sections and histological staining Frozen sections were prepared rather than paraffin sections since the anti-mouse VCAM-1 antibodies only bind to VCAM-1 in frozen sections.
Mice were sensitized with intraperitoneal injection of OVA grade V (10 μg)/alum or saline/alum on days 0 and 7 (SEE FIG. 2). On days 13-20, these mice received daily subcutaneous injections (500) of 2 μg natural tocopherol/ethoxylated castor oil (33) or ethoxylated castor oil alone. This daily 2 μg of natural tocopherol is equivalent to the amount of tocopherol that mice consume from diets (4 g diet consumed/day×500 mg a tocopherol/kg diet) that are commonly used to elevate tissue tocopherols in mice. On days 16, 18, and 20 the mice were challenged with intranasal OVA fraction VI (150 μg) in saline or saline alone. On day 21, the mice were analyzed for airway responsiveness and then tissues were collected. Lung responsiveness was determined using methacholine and whole-body plethysmography as previously described. This method of measuring lung function has the advantage of analysis of larger numbers of animals, as compared to the few animals that can be analyzed using invasive measures of lung function. The whole-body plethysmography correlates well with airway function when performed under continuous flow conditions. This measurement under continuous flow is critical as it avoids the complication of airway conditioning that occurs if these measurements are incorrectly made under closed conditions. After airway analysis, mice were sacrificed and tissues collected.

[12] = Body and lung weights on day 21; format: in vivo, mouse; details: mice, day 21, daily s.c. tocopherol days 13-20
Method: as §1
Body weight and tocopherol levels in these mice were examined. […] Consistent with this, the body weight and lung weights of the mice studied during the development of embodiments of the present invention were unaltered by the α-tocopherol or γ-tocopherol treatments (SEE FIG. 3). Lungs were perfused to remove the blood, homogenized in ethanol and extracted with hexane. Tocopherol concentrations were determined by HPLC with an electrochemical detector. The lung tissue and plasma levels of tocopherols were elevated (SEE FIG. 4). […] The level of γ-tocopherol in the lung tissue of γ-tocopherol-treated mice was 10 fold lower than lung tissue α-tocopherol in the α-tocopherol-treated mice. This 10 fold difference in α-tocopherol and γ-tocopherol levels in the lung tissues may be caused preferential transfer of α-tocopherol in the liver by a TTP (20, 24), although the present invention is not limited to any particular mechanism of action and an understanding of the mechanism of action is not necessary to practice the present invention. […] Administration of tocopherols also had no effect on the low levels of δ-tocopherol in the lung (SEE FIG. 4A).

[13] = in vivo; cited from earlier work
[14] = tested on: arthritis; test: Arthritis
[15] = OVA-challenged BALB/c mice, daily s.c. 2 μg tocopherol days 13-20, day 21, vs OVA-challenged vehicle
[16] = OVA-challenged mice, co-treatment with α-tocopherol

Row | VCAM-1 activation of PKCα (phosphorylation of PKCα-Thr638) [3] | Lung tissue level of the other tocopherol (α vs γ) ([10]; day 21) | Lung tissue level of the administered tocopherol [10] | Lung weights [12] | SMILES | Migration after pretreatment of leukocytes with tocopherol and washing [1] | Lymphocyte migration in transwell migration assay [1] | Eosinophils in the lung tissue [6] | Airway hyperresponsiveness (AHR), enhanced pause (Penh) [9] | OVA-stimulated infiltration of eosinophils into the BAL [11, 15] | OVA-stimulated infiltration of lymphocytes into the BAL [11, 15] | OVA-stimulated infiltration of monocytes into the BAL [11, 15] | Body weight [12] | other results
1 | inhibition | did not alter | elevated levels | unaltered | Cc1c(C)c2c(c(C)c1O)CC[C@@](C)(CCC[C@H](C)CCC[C@H](C)CCCC(C)C)O2 [α-tocopherol, d-α-tocopherol, reference compound] | no effect on migration | inhibited lymphocyte migration | reduced | completely ablated | significantly reduced | significantly reduced | significantly reduced | unaltered | Delayed-type-hypersensitivity responses [2]: reduces; Adhesion molecule expression [4]: inhibit; Endotoxin-stimulated neutrophil infiltration into the lung [5]: reduces; VCAM-1-dependent lymphocyte migration under laminar flow [7]: inhibited; High oxidation by ozone and smoke in the lung [8]: reduces; Increase in α-tocopherol in lungs of α-tocopherol-treated mice ([10]; day 21): five-fold increase
2 | enhancement | did not alter | elevated levels | unaltered | Cc1c(O)cc2c(c1C)O[C@](C)(CCC[C@H](C)CCC[C@H](C)CCCC(C)C)CC2 [γ-tocopherol, d-γ-tocopherol] | no effect on migration | significantly increases lymphocyte migration | elevated | elevated | significantly increased | significantly increased | significantly increased | unaltered | Effect on α-tocopherol inhibition of spleen cell migration ([1]; 5 μM γ-tocopherol with α-tocopherol (80 μM)-treated cells): ablated; Lymphocyte migration after pretreatment of endothelial cells ([1]; endothelial cells pretreated, washed five times, transwell assay): elevated lymphocyte migration; Retention in tissues relative to α-tocopherol [13]: 10%; Effect on α-tocopherol inhibition of AHR [9, 16]: antagonized the inhibition by α-tocopherol; Lung tissue γ-tocopherol in γ-tocopherol-treated mice relative to lung tissue α-tocopherol in α-tocopherol-treated mice ([10]; day 21): 10 fold lower; Effect on arthritis [14]: exacerbatory effect; OVA-stimulated infiltration of neutrophils into the BAL [11, 15]: significantly increased; Effect on the benefit of α-tocopherol (BAL leukocyte infiltration) [11, 16]: blocked the benefit of α-tocopherol
